Data as given in patent US20260092074A1, “Annelated Pyridines as Steroidogenesis Inhibitors, Preparation Method and Use Thereof” (Guangzhou Vinnocent Pharmaceutical Limited, priority 2022, published 2026).

What was measured:
human CYP11B1 = molecular target: T1, human CYP11B1 (Homo sapiens, UniProt P15538); assay: Inhibition of hCYP11B1 in transfected V79 cells; format: cell-based; settings: hamster V79 cells expressing human CYP11B1; substrate 11-deoxycortisol 200 nM
T1 construct: expressed in transfected cells
T1 sequence (P15538 25-503): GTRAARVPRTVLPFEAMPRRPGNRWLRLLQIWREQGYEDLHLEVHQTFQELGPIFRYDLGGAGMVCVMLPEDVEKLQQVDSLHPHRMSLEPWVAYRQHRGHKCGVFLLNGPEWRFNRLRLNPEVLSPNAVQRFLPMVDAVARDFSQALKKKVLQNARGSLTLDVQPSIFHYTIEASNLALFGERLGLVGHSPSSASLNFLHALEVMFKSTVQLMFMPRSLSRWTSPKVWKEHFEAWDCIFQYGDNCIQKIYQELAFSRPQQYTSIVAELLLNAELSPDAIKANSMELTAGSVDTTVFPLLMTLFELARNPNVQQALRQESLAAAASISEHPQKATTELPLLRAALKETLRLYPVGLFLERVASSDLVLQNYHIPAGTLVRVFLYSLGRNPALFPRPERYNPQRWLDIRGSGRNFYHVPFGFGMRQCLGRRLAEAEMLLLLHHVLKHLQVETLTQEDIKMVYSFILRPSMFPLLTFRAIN
Method: (§1) Genes of human CYP11B1 and rat NADPH-P450 reductase were transfected into hamster V79 cells using a lentivirus vector, and stably-expressing cell lines were selected by taking advantages of the associated puromycin-resistance gene. Cultured cells were diluted and seeded in a 96-well plate with an amount of approximately 10,000 per well. After pre-incubation with suitable concentrations of the test compounds for 2 hours, 11-deoxycortisol of 200 nM was added as the substrate to initiate the catalytic reaction. After further incubation for 30 minutes, it was quenched with ethyl acetate. Subsequently, the substrate and product(s) were quantified using LC-MS/MS or HPLC at 260 nm, and the IC50 values were calculated according to inhibitory percentage.

human CYP11B2 = molecular target: T2, human CYP11B2 (Homo sapiens, UniProt P19099); assay: Inhibition of hCYP11B2 in transfected V79 cells; format: cell-based; settings: hamster V79 cells expressing human CYP11B2; substrate 11-deoxycorticosterone 200 nM
T2 construct: expressed in transfected cells
T2 sequence (P19099 25-503): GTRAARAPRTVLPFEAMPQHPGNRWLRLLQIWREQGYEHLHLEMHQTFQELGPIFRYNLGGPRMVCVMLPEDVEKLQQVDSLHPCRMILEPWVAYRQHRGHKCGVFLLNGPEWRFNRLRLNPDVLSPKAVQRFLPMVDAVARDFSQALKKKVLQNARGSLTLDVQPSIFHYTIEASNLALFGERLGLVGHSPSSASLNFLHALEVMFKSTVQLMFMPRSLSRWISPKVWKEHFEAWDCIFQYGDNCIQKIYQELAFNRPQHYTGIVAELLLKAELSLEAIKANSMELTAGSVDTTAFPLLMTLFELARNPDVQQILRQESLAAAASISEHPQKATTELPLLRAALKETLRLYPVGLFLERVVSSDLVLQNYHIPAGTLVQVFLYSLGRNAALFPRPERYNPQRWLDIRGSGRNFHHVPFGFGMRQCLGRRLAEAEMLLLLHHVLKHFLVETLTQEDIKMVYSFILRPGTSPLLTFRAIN
Method: as §1, with “CYP11B2” for “CYP11B1”, “11-deoxycorticosterone” for “11-deoxycortisol”

| IC50 (human CYP11B1) [nM] | IC50 (human CYP11B2) [nM] | Structure (SMILES) |
| --- | --- | --- |
| 0.16 | 0.28 | N#Cc1ccc(-c2cncc3c2CCN3S(=O)(=O)c2ccc(C#N)cc2)cc1 [C15, 4-((4-(4-Cyanophenyl)-2,3-dihydro-1H-pyrrolo[2,3-c]pyridin-1-yl)sulfonyl)benzonitrile] |
| 0.18 | 1.5 | N#Cc1ccc(-c2cncc3c2CCN3S(=O)(=O)c2cccc(C#N)c2)cc1 [C16, 3-((4-(4-Cyanophenyl)-2,3-dihydro-1H-pyrrolo[2,3-c]pyridin-1-yl)sulfonyl)benzonitrile] |
| 7.8 | 3.5 | N#Cc1ccc(-c2cncc3c2CCN3S(=O)(=O)c2cccs2)cc1 [C17, 4-(1-(Thiophen-2-ylsulfonyl)-2,3-dihydro-1H-pyrrolo[2,3-c]pyridin-4-yl)benzonitrile] |
| 0.61 | 0.69 | N#Cc1ccc(-c2cncc3c2CCN3S(=O)(=O)c2cccc3ccccc23)cc1 [C18, 4-(1-(Naphthalen-1-ylsulfonyl)-2,3-dihydro-1H-pyrrolo[2,3-c]pyridin-4-yl)benzonitrile] |
| 9.5 | 4.3 | COc1cccc(S(=O)(=O)N2CCc3c(-c4ccc(C#N)cc4)cncc32)c1 [C19, 4-(1-((3-Methoxyphenyl)sulfonyl)-2,3-dihydro-1H-pyrrolo[2,3-c]pyridin-4-yl)benzonitrile] |
| 0.4 | 1.8 | N#Cc1ccc(-c2cncc3c2CCN3S(=O)(=O)c2cccc(C(F)(F)F)c2)cc1 [C20, 4-(1-((3-[Trifluoromethyl]phenyl)sulfonyl)-2,3-dihydro-1H-pyrrolo[2,3-c]pyridin-4-yl)benzonitrile] |
| 0.01 | 0.01 | N#Cc1ccc(-c2cncc3c2CCN3S(=O)(=O)c2ccccc2)cc1 [C21, 4-(1-(Phenylsulfonyl)-2,3-dihydro-1H-pyrrolo[2,3-c]pyridin-4-yl)benzonitrile] |
| 112 | 2 | N#Cc1ccc(-c2cncc3c2CCN3C(=O)c2ccc(C(F)(F)F)cc2)cc1 [C22, 4-(1-(4-(Trifluoromethyl)benzoyl)-2,3-dihydro-1H-pyrrolo[2,3-c]pyridin-4-yl)benzonitrile] |
| 310 | 7 | N#Cc1ccc(-c2cncc3c2CCN3C(=O)c2cccc(C(F)(F)F)c2)cc1 [C23, 4-(1-(3-(Trifluoromethyl)benzoyl)-2,3-dihydro-1H-pyrrolo[2,3-c]pyridin-4-yl)benzonitrile] |
| 124 | 2.3 | COc1ccc(C(=O)N2CCc3c(-c4ccc(C#N)cc4)cncc32)cc1 [C24, 4-(1-(4-Methoxybenzoyl)-2,3-dihydro-1H-pyrrolo[2,3-c]pyridin-4-yl)benzonitrile] |
| 988 | 30 | N#Cc1ccc(-c2cncc3c2CCN3C(=O)c2ccc(F)cc2)cc1 [C25, 4-(1-(4-Fluorobenzoyl)-2,3-dihydro-1H-pyrrolo[2,3-c]pyridin-4-yl)benzonitrile] |
| 356 | 2.3 | COc1cccc(C(=O)N2CCc3c(-c4ccc(C#N)cc4)cncc32)c1 [C26, 4-(1-(3-Methoxybenzoyl)-2,3-dihydro-1H-pyrrolo[2,3-c]pyridin-4-yl)benzonitrile] |
| 117 | 2.3 | N#Cc1ccc(-c2cncc3c2CCN3C(=O)c2cccc([N+](=O)[O-])c2)cc1 [C27, 4-(1-(3-Nitrobenzoyl)-2,3-dihydro-1H-pyrrolo[2,3-c]pyridin-4-yl)benzonitrile] |
| 310 | 7 | N#Cc1ccc(-c2cncc3c2CCN3C(=O)c2cccc(F)c2)cc1 [C28, 4-(1-(3-fluorobenzoyl)-2,3-dihydro-1H-pyrrolo[2,3-c]pyridin-4-yl)benzonitrile] |
| 185 | 1.7 | N#Cc1ccc(-c2cncc3c2CCN3C(=O)c2cccnc2)cc1 [C29, 4-(1-Nicotinoyl-2,3-dihydro-1H-pyrrolo[2,3-c]pyridin-4-yl)benzonitrile] |

The next lines start with the compound.

| Structure (SMILES) | IC50 (human CYP11B1) [nM] | IC50 (human CYP11B2) [nM] |
| --- | --- | --- |
| CCC(=O)N[C@@H]1CCCc2c(-c3ccc4c(c3)CCC(=O)N4C)cncc21 [Baxdrostat, reference compound] | 3060 | 127 |
| Cc1ccc(S(=O)(=O)N2CCc3c(-c4ccc(C#N)cc4)cncc32)cc1 [C1, 4-(1-Tosyl-2,3-dihydro-1H-pyrrolo[2,3-c]pyridin-4-yl)benzonitrile] | 0.56 | 0.24 |
| N#Cc1ccc(-c2cncc3c2CCN3S(=O)(=O)c2ccc([N+](=O)[O-])cc2)cc1 [C2, 4-(1-((4-Nitrophenyl)sulfonyl)-2,3-dihydro-1H-pyrrolo[2,3-c]pyridin-4-yl)benzonitrile] | 0.35 | 0.12 |
| COc1ccc(S(=O)(=O)N2CCc3c(-c4ccc(C#N)cc4)cncc32)cc1 [C3, 4-(1-((4-Methoxyphenyl)sulfonyl)-2,3-dihydro-1H-pyrrolo[2,3-c]pyridin-4-yl)benzonitrile] | 0.2 | 0.16 |
| N#Cc1ccc(-c2cncc3c2CCN3S(=O)(=O)c2ccc(C(F)(F)F)cc2)cc1 [C4, 4-(1-((4-(Trifluoromethyl)phenyl)sulfonyl)-2,3-dihydro-1H-pyrrolo[2,3-c]pyridin-4-yl)benzonitrile] | 0.36 | 0.64 |
| N#Cc1ccc(-c2cncc3c2CCN3S(=O)(=O)c2ccc(Cl)nc2)cc1 [C5, 4-(1-((6-Chloropyridin-3-yl)sulfonyl)-2,3-dihydro-1H-pyrrolo[2,3-c]pyridin-4-yl)benzonitrile] | 1.1 | 0.4 |
| N#Cc1ccc(-c2cncc3c2CCN3S(=O)(=O)c2cccc(F)c2)cc1 [C6, 4-(1-((3-Fluorophenyl)sulfonyl)-2,3-dihydro-1H-pyrrolo[2,3-c]pyridin-4-yl)benzonitrile] | 1.2 | 0.3 |
| N#Cc1ccc(-c2cncc3c2CCN3S(=O)(=O)c2ccc(F)cc2)cc1 [C7, 4-(1-((4-Fluorophenyl)sulfonyl)-2,3-dihydro-1H-pyrrolo[2,3-c]pyridin-4-yl)benzonitrile] | 1.9 | 0.15 |
| Cc1cccc(S(=O)(=O)N2CCc3c(-c4ccc(C#N)cc4)cncc32)c1 [C8, 4-(1-(m-Tolylsulfonyl)-2,3-dihydro-1H-pyrrolo[2,3-c]pyridin-4-yl)benzonitrile] | 0.25 | 1.4 |
| N#Cc1ccc(-c2cncc3c2CCN3S(=O)(=O)c2cccc([N+](=O)[O-])c2)cc1 [C9, 4-(1-((3-Nitrophenyl)sulfonyl)-2,3-dihydro-1H-pyrrolo[2,3-c]pyridin-4-yl)benzonitrile] | 0.5 | 0.3 |
| N#Cc1ccc(-c2cncc3c2CCN3S(=O)(=O)c2cccnc2)cc1 [C10, 4-(1-(Pyridin-3-ylsulfonyl)-2,3-dihydro-1H-pyrrolo[2,3-c]pyridin-4-yl)benzonitrile] | 1.7 | 1.3 |
| N#Cc1ccc(-c2cncc3c2CCN3S(=O)(=O)c2cccc3cccnc23)cc1 [C11, 4-(1-(Quinolin-8-ylsulfonyl)-2,3-dihydro-1H-pyrrolo[2,3-c]pyridin-4-yl)benzonitrile] | 0.7 | 1 |
| N#Cc1ccc(-c2cncc3c2CCN3S(=O)(=O)c2ccc3ccccc3c2)cc1 [C12, 4-(1-(Naphthalen-2-ylsulfonyl)-2,3-dihydro-1H-pyrrolo[2,3-c]pyridin-4-yl)benzonitrile] | 0.3 | 0.17 |
| N#Cc1ccc(-c2cncc3c2CCN3S(=O)(=O)c2ccc(Cl)cc2)cc1 [C13, 4-(1-((4-Chlorophenyl)sulfonyl)-2,3-dihydro-1H-pyrrolo[2,3-c]pyridin-4-yl)benzonitrile] | 0.2 | 0.6 |
| N#Cc1ccc(-c2cncc3c2CCN3S(=O)(=O)c2cccc(Cl)c2)cc1 [C14, 4-(1-((3-Chlorophenyl)sulfonyl)-2,3-dihydro-1H-pyrrolo[2,3-c]pyridin-4-yl)benzonitrile] | 0.9 | 0.5 |
